Assay results as given in US11918624B2, “Therapeutic composition for use in the treatment of COVID-19 and other cytokine storm associated disorders” (priority 2020, dated 2024).
Ends that are not written are not given here.

How the values were obtained:
C5a receptor = target: T1, C5a receptor (Homo sapiens, UniProt P21730); assay: C5a-induced Ca++ influx in C5a receptor-expressing U937 cells; type: cell-based
T1 construct: U937 cells bearing the C5a receptor were preincubated with this peptide; endogenous in cells; host or cells: U937 cells, cAMP stimulated
T1 sequence (P21730 1-350): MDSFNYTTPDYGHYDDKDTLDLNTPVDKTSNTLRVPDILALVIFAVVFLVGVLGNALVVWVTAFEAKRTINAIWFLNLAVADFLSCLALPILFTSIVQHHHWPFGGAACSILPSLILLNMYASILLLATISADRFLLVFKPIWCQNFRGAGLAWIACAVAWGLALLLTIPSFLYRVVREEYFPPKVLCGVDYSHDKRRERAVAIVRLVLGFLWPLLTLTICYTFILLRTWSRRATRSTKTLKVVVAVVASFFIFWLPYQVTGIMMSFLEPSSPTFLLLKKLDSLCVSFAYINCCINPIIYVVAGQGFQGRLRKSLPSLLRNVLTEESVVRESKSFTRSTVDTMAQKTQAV
Description: It was shown by its ability to inhibit Ca^++ influx induced by C5a anaphylatoxin in C5a receptor-expressing (cAMP stimulated) U937 cells.
(§1) Particularly, it is shown the IC50 achieved at pM levels. […] In addition, in the membrane bound state the peptide remains active for at least 12 hours. Therefore, it is a very effective C5aR inhibitor.

C5aR = target: T2, C5aR (Homo sapiens, UniProt P21730); assay: persistence of activity of erythrocyte membrane bound peptide; settings: erythrocyte membrane bound state
T2 construct: endogenous in cells; host or cells: 'C5aR bearing cells', not specified
T2 sequence (P21730 1-350): T1 sequence (P21730 1-350)
Description: The activity in vivo, in rat and pig models, is shown in the examples below. Further, it has been shown that the peptide can be delivered in vivo very safely, even at very high concentration. […] In addition, in the membrane bound state, the peptide remains active for at least 12 hours. Therefore, it is a very effective C5aR inhibitor.
as §1

guinea pig complement = assay: antibody dependent complement mediated hemolysis assay; type: biochemical; settings: 1 ug/mL peptide added to guinea pig complement, titrated against turkey erythrocytes with hemolysin
Description: The peptides were synthesized by Fmoc solid phase method, purified on C18 reversa phase chromatography, tested by adding each peptide to and screened for complement inhibitory activity, in a simple antibody dependent hemolysis system in which 1 ug/mL of peptides were added to guinea pig complement, and were titrated against turkey erythrocytes mixed with hemolysin, a complement fixing anti-erythrocyte antibody solution. In the presence the peptides, the hemolythic activity of the complement was reduced, and the corresponding dilutions was determined. The inhibition was estimated by a formula: Inhibition (%)=100−(dilution of sample titer*100)/dilution of control

C5a anaphylatoxin = assay: binding of AHB peptide to antisense peptides derived from C5a; settings: C5a amino acids 37-43 and 61-74
endothelin receptor = target: T3, endothelin receptor (Canis lupus familiaris, UniProt Q5KSU9); assay: iv ET-1 injection in dogs pretreated with peptide; type: in vivo
T3 construct: from tissue; host or cells: whole animal (dog), in vivo
T3 sequence (Q5KSU9 21-426): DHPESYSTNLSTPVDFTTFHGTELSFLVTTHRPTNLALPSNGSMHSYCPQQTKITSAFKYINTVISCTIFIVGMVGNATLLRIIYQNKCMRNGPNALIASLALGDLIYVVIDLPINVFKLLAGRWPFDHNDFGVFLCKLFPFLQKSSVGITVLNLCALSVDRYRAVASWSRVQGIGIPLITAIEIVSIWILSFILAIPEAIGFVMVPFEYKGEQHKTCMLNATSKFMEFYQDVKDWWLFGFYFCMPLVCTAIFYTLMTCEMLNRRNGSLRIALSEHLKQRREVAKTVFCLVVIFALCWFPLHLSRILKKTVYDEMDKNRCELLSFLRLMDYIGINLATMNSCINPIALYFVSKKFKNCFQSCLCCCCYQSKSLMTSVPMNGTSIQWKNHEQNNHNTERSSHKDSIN
Description: One of the peptides was subsequently tested in dogs and confirmed its biological effect in vivo. […] The elevated ET-1 level was marked with profound changes in circulation (details to be published elsewhere). However, pretreatment of dogs with 100 ug/kg ETR-P1/fl peptide removed the cardiovascular effects of injected ET-1 peptide from the circulation within 10 min and the measured endothelin level become normal. […] It is known in the previous art and has been patented and the patent expired.

Row | Substance | Hemolysis inhibition (% of maximum) (guinea pig complement) | other results
1 | (LRTWSRRATRSTKTLKVV)8K4K2KV [PR226MAP] | – | concentration of complete inhibition of C5a triggered Ca influx (C5a receptor; FIG. 2): 200 pM; concentration level at which C5a triggered Ca influx is inhibited (C5a receptor; serial dilution): femtomolar concentration levels; IC50 (C5a receptor; serial dilution, FIG. 2, read-out: IC50 of C5a triggered Ca influx): 1 pM; time the peptide remains active (C5aR): at least 12 hours
2 | APNHLLEVRV [AP1314, APNHLLEVRV] | >80% | –
3 | DDLKQLANGVDRYI [DDL1619, DDLKQLANGVDRYI] | >80% | –
4 | DYGHYDDKDTLDLNTPVD (Complement factor 5a receptor targeting inhibitor DYG2094) [PR10] | – | inhibition of C5a receptor activity / C5a-induced Ca++ influx (C5a receptor): did not inhibit the receptor activity; binding to antisense peptides derived from C5a anaphylatoxin (C5a anaphylatoxin): bound to two of its corresponding antisense peptides
5 | ERLGREGVQ [ERL1041, ERLGREGVQ] | >20-40% | –
6 | ESASLRSEETKV [ESA1331, ESASLRSEETKV] | >20-40% | –
7 | GQWKIRAYYENS [GQW1513, GQWKIRAYYENS] | ≤20% | –
8 | HWPFGGAACSILPSLI (Complement factor 5a receptor targeting inhibitor HWP1667) [PR101] | – | inhibition of C5a receptor activity / C5a-induced Ca++ influx (C5a receptor): did not affect the C5a-induced Ca^++ influx
9 | IAVHYLDETEQW [IAV1501, IAVHYLDETEQW] | ≤20% | –
10 | KRPQDAKNT [KRP1057, KRPQDAKNT] | >20-40% | –
11 | KYKHSVVKKSDGA (PL12-AHB peptide derived from C5a anaphylatoxin) | – | inhibition of C5a receptor activity / C5a-induced Ca++ influx (C5a receptor): not able to inhibit
12 | LHLSVRTLELRP [LHL1431, LHLSVRTLELRP] | >40-60% | –
13 | LNCQRYYGGGGYST [LNC1538, LNCQRYYGGGGYST] | >20-40% | –
14 | LNLCALSVDRYRAVASWSRVI (Endothelin A receptor targeting inhibitor LNL2390) [ETR-P1/fl] | – | measured endothelin level after injected ET-1 (endothelin receptor; dogs, pretreatment 100 ug/kg): become normal; time to removal of cardiovascular effects of injected ET-1 (endothelin receptor; dogs, pretreatment 100 ug/kg, iv ET-1): ≤ 10 min; decrease of normal baseline level of ET peptide in plasma (endothelin receptor; dogs, transient): 30-50%; increase of ET-1 binding capacity of the endothelin receptor (endothelin receptor; receptor frozen in inactive conformation): 4 times
15 | LRANISHKDMQLGR (PL61-AHB peptide derived from C5a anaphylatoxin) | – | inhibition of C5a receptor activity / C5a-induced Ca++ influx (C5a receptor): not able to inhibit
16 | LRLPYVVREQL [LRL1384, LRLPYVVREQL] | ≤20% | –
17 | LRTWSRRATRSTKTLKVV (Complement factor 5a receptor targeting inhibitor LRT2463) [PR226] | – | biphasic activity on C5a receptor (C5a receptor): inhibitor at high concentration and activator as low concentration
18 | LSRKVLLDGV [LSR1099, LSRKVLLDGV] | >20-40% | –
19 | LTAYVVKVFSLA [LTA1309, LTAYVVKVFSLA] | >80% | –
20 | NIFLKDSITTWE [NIF1464, NIFLKDSITTWE] | >40-60% | –
21 | QALPYSTVGNSNL [QAL1363, QALPYSTVGNSNL] | >40-60% | –
22 | QKKIEEIAAKYKHS (PL3-AHB peptide derived from C5a anaphylatoxin) | – | inhibition of C5a receptor activity / C5a-induced Ca++ influx (C5a receptor): not able to inhibit
23 | QRSYTVAIA [QRS1008, QRSYTVAIA] | >40-60% | –
24 | RAARISLGPRSIKAFTE (PL37-AHB peptide derived from C5a anaphylatoxin) | – | inhibition of C5a receptor activity / C5a-induced Ca++ influx (C5a receptor): not able to inhibit
25 | SDAGLTFTSS [SDA984, SDAGLTFTSS] | >80% | –
26 | SDKKGICVADPFEVT [SDK1606, SDKKGICVADPFEVT] | >80% | –
27 | TAYVVKVFSLAVN [TAY1409, TAYVVKVFSLAVN] | ≤20% | –
28 | VQAERSGIPIVTSPYQI [VQA1857, VQAERSGIPIVTSPYQI] | >80% | –
